From patent publication US20240226097A1, “METHODS OF CANCER TREATMENT USING A COMBINATION OF BTK INHIBITORS AND PI3 KINASE INHIBITORS” (priority 2021, published 2024) come the findings set out here.

Holding throughout (assay type): in vivo
For one data set, the system named is Farage cells. Briefly: Farage DLBCL xenograft mouse model, tumor growth inhibition. As to conditions: single agent, day 25. How it is done: Farage cells are of DLBCL origin. Farage cells were cultured in RPMI1640 complete medium supplemented with 10% (v/v) fetal bovine serum, and 100 μg/mL of penicillin and streptomycin. On the day of implantation, aggregated cells were dispersed. Four hours later, media was removed and the cells were collected as described above. Cells were re-suspended in cold (4° C.) PBS and same volume of matrigel was added to give a final concentration of 1.5×10^7 cells/mL for Farage. Re-suspended cells were placed on ice prior to inoculation. The right flank region of each mouse (NCG) was cleaned with 75% ethanol prior to cell inoculation. Animals were then injected subcutaneously with 3×10^6 Farage cells in 100 μl of cell suspension in the right front flank via a 26-gauge needle.
The animals were randomly divided into 6 groups with 10 mice per group. The groups consisted of vehicle group (0.5% (w/v) methylcellulose solution), 7.5 mg/kg BTK-1 (dissolved in 0.5% (w/v) methylcellulose solution), 12 mg/kg Compound 2 (dissolved in 0.5% (w/v) methylcellulose solution), 36 mg/kg Compound 2 (dissolved in 0.5% (w/v) methylcellulose solution), and the combination of Compound 2 and BTK-1 (12 mg/kg and 7.5 mg/kg, respectively), or (36 mg/kg and 7.5 mg/kg, respectively), see Table 4. BTK-1 and Compound 2 were administered as a combination by oral gavage (p.o.) twice daily (BID). After implantation, primary tumor volume was measured in two dimensions using a caliper. Compound 2 was (S)-3-(1-(8-amino-1-methylimidazo [1,5-a] pyrazin-3-yl) ethyl)-5-chloro-6-fluoro-2-isopropoxy-N-(2-(4-methylpiperazin-1-yl) ethyl) benzamide fumarate.
(§1) Individual body weight was recorded twice weekly, with mice being monitored daily for clinical signs of toxicity for the duration of the study. […]
(§2) Tumor volume was calculated using the formula: V=0.5×(a×b^2) where a and b are the long and short diameters of the tumor, respectively. Tumor growth inhibition (TGI) was calculated using the formula in the above examples.

For the next data set, the system named is MINO cells. Description: MINO MCL xenograft mouse model, tumor growth inhibition. Conditions: single agent, day 24. How it is done: MINO cells are of MCL origin. The MINO cells were cultured in RPMI1640 complete medium supplemented with 10% (v/v) fetal bovine serum, and 100 μg/mL of penicillin and streptomycin. On the day of implantation, aggregated cells were dispersed. Four hours later, media was removed, and the cells were collected as described above. Cells were re-suspended in cold (4° C.) PBS with a final concentration of 1×10^8 cells/mL. Re-suspended cells were placed on ice prior to inoculation. The right flank region of each mouse (NOD/SCID) was cleaned with 75% ethanol prior to cell inoculation. Animals were then injected subcutaneously with 1×10^7 MINO cells in 100 μl of cell suspension in the right front flank via a 26-gauge needle.
On day 1 after inoculation, animals were randomly divided into 6 groups with 10 mice per group according to the inoculation order. The groups consisted of vehicle group (0.5% (w/v) methylcellulose solution), 7.5 mg/kg BTK-1 (dissolved in 0.5% (w/v) methylcellulose solution), 12 mg/kg Compound 2 (dissolved in 0.5% (w/v) methylcellulose solution), 36 mg/kg Compound 2 (dissolved in 0.5% (w/v) methylcellulose solution) and the combination of Compound 2/BTK-1 (12 mg/kg Compound 2 and 7.5 mg/kg BTK-1), or (36 mg/kg Compound 2 and 7.5 mg/kg BTK-1), see Table 2. The compounds were administered by oral gavage (p.o.) twice daily (BID). After implantation, primary tumor volume was measured in two dimensions using a caliper. Compound 2 was (S)-3-(1-(8-amino-1-methylimidazo[1,5-a]pyrazin-3-yl)ethyl)-5-chloro-6-fluoro-2-isopropoxy-N-(2-(4-methylpiperazin-1-yl)ethyl)benzamide fumarate.
Mice were euthanized using carbon dioxide when their tumor volume reached 2,000 mm^3 after twice measurements, the tumor was ulcerated, or body weight loss exceeded 20%.
(§3) Tumor volume was calculated using the formula: V=0.5×(a×b^2) where a and b are the long and short diameters of the tumor, respectively. Tumor growth inhibition (TGI) was calculated using the following formula: % TGI=100×[1−(treatedt/vehiclet)](treatedt=treated tumor volume at time t) and (vehiclet=vehicle tumor volume at time t)

Another data set has as its system JeKo-1 cells. Description: JeKo-1 MCL xenograft mouse model, tumor growth inhibition. Conditions: single agent, day 21. How it is done: JeKo-1 cells are of mantle cell lymphoma (MCL) origin. These cells were cultured in RPMI1640 complete medium supplemented with 10% (v/v) fetal bovine serum, and 100 μg/mL of penicillin and streptomycin. NOD/SCID mice were pre-treated with cyclophosphamide (prepared in saline, 100 mg/kg, i.p.) and disulfiram (prepared in 0.8% Tween-80 in saline, 125 mg/kg, p.o., two hours after each dose of cyclophosphamide) once daily for two days.
On the day of implantation, aggregated cells were dispersed. Four hours later, the media was removed, and the cells were collected and re-suspended in cold (4° C.) DPBS with a final concentration of 1×10^8 cells/mL. Re-suspended cells were placed on ice prior to inoculation. The right flank region of each mouse was cleaned with 75% ethanol prior to cell inoculation. Animals were then co-injected subcutaneously with 1×10^7 JeKo-1 cells in 100 μL of cell suspension in the right front flank via a 26-gauge needle.
Animals were randomly divided into six groups with 10 mice per group. The groups consisted of vehicle group (0.5% (w/v) methylcellulose solution), 7.5 mg/kg BTK-1 (dissolved in 0.5% (w/v) methylcellulose solution), 12 mg/kg Compound 2 (dissolved in 0.5% (w/v) methylcellulose solution), 36 mg/kg Compound 2 (dissolved in 0.5% (w/v) methylcellulose solution), and the combination of Compound 2/BTK-1 (12 mg/kg Compound 2 and 7.5 mg/kg BTK-1), or (36 mg/kg Compound 2 and 7.5 mg/kg BTK-1), see Table 1. […]
Both compounds were administered by oral gavage (p.o.) twice daily (BID). After implantation, primary tumor volume was measured in two dimensions using a caliper.
as §1, §3

The test system of a further data set is TMD8 cells. Description: TMD8 DLBCL xenograft mouse model, tumor growth inhibition. As to conditions: single agent, day 14. How it is done:
TMD8 cells are of DLBCL origin. TMD8 cells were cultured in RPMI1640 complete medium supplemented with 10% (v/v) fetal bovine serum, and 100 μg/mL of penicillin and streptomycin. On the day of implantation, aggregated cells were dispersed. Four hours later, media was removed, and the cells were collected as described above. Cells were re-suspended in cold (4° C.) PBS and same volume of matrigel was added to give a final concentration of 5×10^7 cells/mL for TMD8. Re-suspended cells were placed on ice prior to inoculation. The right flank region of each mouse (NOD/SCID) was cleaned with 75% ethanol prior to cell inoculation. Animals were then injected subcutaneously with 1×10^7 TMD8 cells in 200 μl of cell suspension in the right front flank via a 26-gauge needle.
On day 15 after inoculation, animals were randomly divided into 8 groups with 10 mice per group according to the tumor volume. The groups consisted of vehicle group (0.5% (w/v) methylcellulose solution), 2.5 mg/kg BTK-1 (dissolved in 0.5% (w/v) methylcellulose solution), 10 mg/kg Compound 1 (dissolved in 0.5% (w/v) methylcellulose solution), 30 mg/kg Compound 1 (dissolved in 0.5% (w/v) methylcellulose solution), 100 mg/kg Compound 1 (dissolved in 0.5% (w/v) methylcellulose solution) and the combination of Compound 1/BTK-1 (10 mg/kg Compound 1 and 2.5 mg/kg BTK-1), (30 mg/kg Compound 1 and 2.5 mg/kg BTK-1), or (100 mg/kg Compound 1 and 2.5 mg/kg BTK-1), see Table 3. BTK-1 and Compound 1 were administered by oral gavage (p.o.) twice daily (BID). After implantation, primary tumor volume was measured in two dimensions using a caliper. Compound 1 was (S)-3-(1-(8-amino-1-methylimidazo[1,5-a] pyrazin-3-yl)ethyl)-5-chloro-6-fluoro-2-isopropoxy-N-(2-(4-methylpiperazin-1-yl)ethyl)benzamide.
Individual body weight was recorded twice weekly, with mice being monitored daily for clinical signs of toxicity for the duration of the study. Mice were euthanized using carbon dioxide when their tumor volume reached 2,000 mm^3 after twice measurements, the tumor was ulcerated, or body weight loss exceeded 20%.
as §2

The nature of data set [1]: Bioavailability of salts of Compound 1. Conditions: among different salts of Compound 1.

Consider `C=CC(=O)N1CCC([C@@H]2CCNc3c(C(N)=O)c(-c4ccc(Oc5ccccc5)cc4)nn32)CC1` [BTK-1, (S)-7-(1-acryloylpiperidin-4-yl)-2-(4-phenoxyphenyl)-4,5,6,7-tetra-hydropyrazolo[1,5-a]pyrimidine-3-carboxamide], for which the “% TGI” value in the data set with Farage cells (7.5 mg/kg p.o. BID) came out at 43%; in the data set on MINO cells (7.5 mg/kg p.o. BID) it was 22%; in the data set with JeKo-1 cells (7.5 mg/kg p.o. BID), 43%; in the data set on TMD8 cells (2.5 mg/kg p.o. BID), 68%.
Take `Cc1nc([C@@H](C)c2cc(Cl)c(F)c(C(=O)NCCN3CCN(C)CC3)c2OC(C)C)n2ccnc(N)c12.O=C(O)/C=C/C(=O)O` [Compound 2, (S)-3-(1-(8-amino-1-methylimidazo[1,5-a]pyrazin-3-yl)ethyl)-5-chloro-6-fluoro-2-isopropoxy-N-(2-(4-methylpiperazin-1-yl)ethyl)benzamide fumarate]: the “% TGI” value in the data set with Farage cells (12 mg/kg p.o. BID) came out at 40%; in the data set with Farage cells (36 mg/kg p.o. BID), 52%; with MINO cells (12 mg/kg p.o. BID), 26%; with MINO cells (36 mg/kg p.o. BID) it was 36%; in the data set with JeKo-1 cells (12 mg/kg p.o. BID) it was 59%; in the data set with JeKo-1 cells (36 mg/kg p.o. BID), 62%. In addition, the bioavailability entry in data set [1] is on record as “high bioavailability”.
On to `Cc1nc([C@@H](C)c2cc(Cl)c(F)c(C(=O)NCCN3CCN(C)CC3)c2OC(C)C)n2ccnc(N)c12` [Compound 1, (S)-3-(1-(8-amino-1-methylimidazo[1,5-a]pyrazin-3-yl)ethyl)-5-chloro-6-fluoro-2-isopropoxy-N-(2-(4-methylpiperazin-1-yl)ethyl)benzamide], for which the entries for the “% TGI” value in the data set with TMD8 cells (10 mg/kg p.o. BID), in the data set on TMD8 cells (30 mg/kg p.o. BID) and in the data set on TMD8 cells (100 mg/kg p.o. BID) were 27%, 26% and 43%, respectively.
